Source: ChEMBL document CHEMBL4339186, “Repurposing nitrocatechols: 5-Nitro-α-cyanocarboxamide derivatives of caffeic acid and caffeic acid phenethyl ester effectively inhibit aggregation of tau-derived hexapeptide AcPHF6” (Eur J Med Chem, 2019)
Active and inactive are the calls of the source. No cut-off for these calls is given here.

Assays:
[1] = Inhibition of synthetic AcPHF6 peptide aggregation in pH 7.4 phosphate buffer assessed as reduction in fluorescence intensity at 50 uM and measured every minute over 2 hrs with 5 secs shaking prior to each reading by ThT fluorescence assay
[2] = Metal chelating activity assessed as Cu2+-compound complex formation at 40 uM after 30 mins by UV-Visible spectrophotometric method
[3] = Metal chelating activity assessed as Fe2+-compound complex formation at 40 uM after 30 mins by UV-Visible spectrophotometric method
[4] = Metal chelating activity assessed as Cu2+-compound complex formation at 40 uM incubated with 0-100 uM copper(II) sulfate after 30 mins by UV-Visible spectrophotometric method

Structure (SMILES)	inhibition [1]	Activity [2]	Activity [3]	Activity [4]
O=C(O)/C=C/c1cc(O)c(O)c(O)c1	inactive			
O=C(O)/C=C/c1cc(O)c(O)c(Br)c1	18%			
O=C(/C=C/c1cc(O)c(O)c([N+](=O)[O-])c1)OCc1ccccc1	44.5%	Active	inactive	
CCOC(=O)/C=C/c1ccc(O)cc1	inactive			
CCOC(=O)C(=Cc1cc(O)c(O)c(O)c1)C(=O)OCC	inactive			
O=C(O)/C=C/c1ccc(O)c(O)c1	inactive			
Cc1ccc(C(=O)c2cc(O)c(O)c([N+](=O)[O-])c2)cc1	64.6%			
CCOC(=O)/C=C/c1cc(O)c(O)c(O)c1	21%			
O=S(=O)(O)c1cc(S(=O)(=O)O)c2c(/N=N/c3ccccc3)c(O)ccc2c1	54%			
N#C/C(=C\c1cc(O)c(O)c([N+](=O)[O-])c1)C(=O)NCCc1ccccc1	89.2%	Active	inactive	Active
CCOC(=O)/C=C/c1ccc(O)c(O)c1	inactive			
CCOC(=O)C(=Cc1ccc(O)c(O)c1)C(=O)OCC	inactive			
O=C(/C=C/c1ccc(O)c(O)c1)OCc1ccccc1	13%			
N#C/C(=C\c1cc(O)c(O)c([N+](=O)[O-])c1)C(=O)OCc1ccccc1	71.2%	Active	inactive	
N#C/C(=C\c1cc(O)c(O)c([N+](=O)[O-])c1)C(=O)OCCc1ccccc1	74.4%	Active	inactive	
O=C(O)/C=C/c1cc(O)c(O)c([N+](=O)[O-])c1	45%			
CCOC(=O)C(=Cc1cc(O)c(O)c([N+](=O)[O-])c1)C(=O)OCC	41%			
O=C(O)C(=Cc1cc(O)c(O)c([N+](=O)[O-])c1)C(=O)O	inactive			
N#C/C(=C\c1cc(O)c(O)c([N+](=O)[O-])c1)C(=O)NCc1ccccc1	90.5%	Active	inactive	
CCOC(=O)C(=Cc1ccc(O)cc1)C(=O)OCC	inactive			
O=C(O)/C=C/c1ccc(O)cc1	inactive			
CCOC(=O)/C=C/c1cc(O)c(O)c([N+](=O)[O-])c1	44%			
O=C(/C=C/c1ccc(O)c(O)c1)NCCc1ccccc1	inactive			
O=C(/C=C/c1cc(O)c(O)c([N+](=O)[O-])c1)OCCc1ccccc1	55.2%	Active	inactive	
O=C(/C=C/c1ccc(O)c(O)c1)OCCc1ccccc1	17%			
O=C(O)c1ccc(O)c(O)c1	inactive			
O=C(O)c1cc(O)c(O)c(O)c1	inactive			
CCN(CC)C(=O)/C(C#N)=C/c1cc(O)c(O)c([N+](=O)[O-])c1	60.3%			
